Test results: article PMC12155096 (International Journal of Molecular Sciences, 2025)
Counter-ions that a name gives are not always drawn. Like-named read-outs stand apart in the source and are kept apart here.

What was measured:
[1] = target: T1, human CYP2C9 (Homo sapiens, UniProt P11712); assay: biochemical; settings: for AC50: CYP2C9 AC50 (half-maximal activity concentration)
[2] = target: T2, human CYP2C19 (Homo sapiens, UniProt P33261); settings: for CYP2C19 Efficacy (in parenthesis): human
[3] = target: T3, human CYP1A2 (Homo sapiens, UniProt P05177); settings: for CYP1A2 Efficacy (in parenthesis): human
T3 sequence (P05177 1-516): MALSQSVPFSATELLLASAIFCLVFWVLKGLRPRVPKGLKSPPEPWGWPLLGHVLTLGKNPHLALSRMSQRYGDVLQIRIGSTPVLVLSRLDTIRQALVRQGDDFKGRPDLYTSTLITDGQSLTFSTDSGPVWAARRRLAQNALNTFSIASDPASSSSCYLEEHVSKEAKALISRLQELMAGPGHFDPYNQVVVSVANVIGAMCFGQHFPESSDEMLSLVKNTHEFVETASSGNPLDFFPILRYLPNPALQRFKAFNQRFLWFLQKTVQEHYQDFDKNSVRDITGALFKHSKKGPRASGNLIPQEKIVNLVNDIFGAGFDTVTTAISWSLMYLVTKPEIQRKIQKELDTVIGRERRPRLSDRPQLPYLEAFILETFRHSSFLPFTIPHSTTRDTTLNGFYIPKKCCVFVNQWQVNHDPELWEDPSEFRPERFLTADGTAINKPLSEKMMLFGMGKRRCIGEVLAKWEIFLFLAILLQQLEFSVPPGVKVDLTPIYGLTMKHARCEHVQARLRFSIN

[4] = target: T4, human CYP2D6 (Homo sapiens, UniProt P10635); assay: biochemical
[5] = target: Photinus pyralis (firefly) luciferase (Photinus pyralis, UniProt P08659); assay: biochemical; format: biochemical
[6] = target: T1, human CYP2C9; settings: for CYP2C9 Efficacy (in parenthesis): human
[7] = target: T3, human CYP1A2; assay: biochemical
[8] = target: T4, human CYP2D6
[9] = target: CYP3A4 (Homo sapiens, UniProt P08684)
[10] = target: T2, human CYP2C19; assay: biochemical; settings: CYP2C19 IC50 (half-maximal inhibitory concentration)
[11] = CYP2D6 AC50 (half-maximal activity concentration)
[12] = CYP1A2 IC50 (half-maximal inhibitory concentration)
[13] = CYP2C9 IC50 (half-maximal inhibitory concentration)
[14] = CYP2D6 IC50 (half-maximal inhibitory concentration)

T4 sequence (P10635 whole entry): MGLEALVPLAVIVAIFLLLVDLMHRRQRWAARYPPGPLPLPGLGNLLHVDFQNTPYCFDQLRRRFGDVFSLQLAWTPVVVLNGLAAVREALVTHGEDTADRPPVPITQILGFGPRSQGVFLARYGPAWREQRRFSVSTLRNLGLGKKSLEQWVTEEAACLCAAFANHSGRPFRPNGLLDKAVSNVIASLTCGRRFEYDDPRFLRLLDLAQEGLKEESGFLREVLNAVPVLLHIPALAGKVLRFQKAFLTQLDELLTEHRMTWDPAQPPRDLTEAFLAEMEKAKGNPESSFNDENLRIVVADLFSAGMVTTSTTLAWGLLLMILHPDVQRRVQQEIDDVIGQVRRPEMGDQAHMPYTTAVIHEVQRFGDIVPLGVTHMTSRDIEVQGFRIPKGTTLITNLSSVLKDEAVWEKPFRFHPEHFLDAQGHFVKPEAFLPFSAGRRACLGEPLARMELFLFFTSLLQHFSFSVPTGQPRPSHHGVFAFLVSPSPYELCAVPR
T1 sequence (P11712 whole entry): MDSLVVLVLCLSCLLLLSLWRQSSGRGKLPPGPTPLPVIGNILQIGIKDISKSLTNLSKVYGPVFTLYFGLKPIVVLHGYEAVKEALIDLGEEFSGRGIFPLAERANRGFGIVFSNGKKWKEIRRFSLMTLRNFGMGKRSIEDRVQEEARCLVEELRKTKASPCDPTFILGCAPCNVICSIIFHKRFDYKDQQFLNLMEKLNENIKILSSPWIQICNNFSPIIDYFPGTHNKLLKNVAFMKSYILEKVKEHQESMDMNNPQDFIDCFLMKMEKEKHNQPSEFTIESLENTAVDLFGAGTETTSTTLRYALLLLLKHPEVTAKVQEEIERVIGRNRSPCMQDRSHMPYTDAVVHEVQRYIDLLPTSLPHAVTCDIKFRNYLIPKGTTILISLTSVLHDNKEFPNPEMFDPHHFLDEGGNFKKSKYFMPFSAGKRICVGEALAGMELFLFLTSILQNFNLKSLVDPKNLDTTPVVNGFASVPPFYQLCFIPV
Photinus pyralis (firefly) luciferase, sequence (P08659 whole entry): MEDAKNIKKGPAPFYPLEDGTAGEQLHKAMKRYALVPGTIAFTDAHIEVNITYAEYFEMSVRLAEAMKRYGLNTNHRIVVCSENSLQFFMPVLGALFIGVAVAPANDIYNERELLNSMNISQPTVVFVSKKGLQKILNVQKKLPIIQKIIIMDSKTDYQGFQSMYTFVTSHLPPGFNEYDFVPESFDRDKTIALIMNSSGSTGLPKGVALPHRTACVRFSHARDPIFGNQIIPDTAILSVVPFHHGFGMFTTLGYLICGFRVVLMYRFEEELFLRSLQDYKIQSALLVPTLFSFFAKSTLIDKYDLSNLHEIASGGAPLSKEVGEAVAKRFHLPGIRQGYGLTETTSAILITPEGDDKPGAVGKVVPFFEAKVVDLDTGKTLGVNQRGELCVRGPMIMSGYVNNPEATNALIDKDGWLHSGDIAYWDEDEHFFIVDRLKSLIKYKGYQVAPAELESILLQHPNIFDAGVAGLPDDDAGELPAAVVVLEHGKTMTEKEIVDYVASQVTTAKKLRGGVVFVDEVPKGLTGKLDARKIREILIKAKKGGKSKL
CYP3A4, sequence (P08684 whole entry): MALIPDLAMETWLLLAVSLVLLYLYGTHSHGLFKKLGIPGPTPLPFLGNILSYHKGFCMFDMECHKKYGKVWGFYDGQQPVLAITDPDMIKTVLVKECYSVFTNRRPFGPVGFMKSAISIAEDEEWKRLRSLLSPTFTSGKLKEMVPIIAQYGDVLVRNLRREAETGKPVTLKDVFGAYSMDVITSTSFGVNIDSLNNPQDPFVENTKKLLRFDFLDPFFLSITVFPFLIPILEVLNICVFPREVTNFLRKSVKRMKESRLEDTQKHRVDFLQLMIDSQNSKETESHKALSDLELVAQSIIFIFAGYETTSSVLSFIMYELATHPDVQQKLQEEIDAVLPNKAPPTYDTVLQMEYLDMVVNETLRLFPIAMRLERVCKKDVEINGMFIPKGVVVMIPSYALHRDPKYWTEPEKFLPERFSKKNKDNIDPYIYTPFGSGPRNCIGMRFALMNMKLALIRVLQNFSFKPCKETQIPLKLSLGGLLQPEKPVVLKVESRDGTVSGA
T2 sequence (P33261 whole entry): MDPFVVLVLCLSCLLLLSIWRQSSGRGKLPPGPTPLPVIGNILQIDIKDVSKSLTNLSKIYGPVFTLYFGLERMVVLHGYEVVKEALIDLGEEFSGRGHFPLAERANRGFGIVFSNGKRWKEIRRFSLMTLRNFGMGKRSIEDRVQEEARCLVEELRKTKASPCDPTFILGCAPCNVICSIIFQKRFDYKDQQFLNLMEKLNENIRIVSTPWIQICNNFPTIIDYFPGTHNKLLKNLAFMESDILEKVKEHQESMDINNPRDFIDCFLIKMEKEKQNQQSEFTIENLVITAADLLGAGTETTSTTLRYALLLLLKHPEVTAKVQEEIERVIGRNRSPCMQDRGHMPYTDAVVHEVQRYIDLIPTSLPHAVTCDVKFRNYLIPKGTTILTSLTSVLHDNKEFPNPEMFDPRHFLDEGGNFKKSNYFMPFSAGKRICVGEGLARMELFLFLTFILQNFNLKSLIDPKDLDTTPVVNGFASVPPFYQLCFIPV

Structure (SMILES): N=C(N)NC(=O)Cc1c(Cl)cccc1Cl [Guanfacine hydrochloride]
- AC50 [1]: 27.3 µM
- CYP2C19 AC50 (half-maximal activity concentration) [2]: Inactive
- CYP1A2 AC50 (half-maximal activity concentration) [3]: Inactive
- AC50 [4, 11]: 25.8 µM

Structure (SMILES): Brc1c(Br)c(Br)c(Br)c(Br)c1Br [Hexabromobenzene]
- Luciferase IC50 (half-maximal inhibitory concentration) [5]: Inactive
- CYP2C9 IC50 (half-maximal inhibitory concentration) [6]: Inactive
- IC50 [7, 12]: 0.09 µM
- CYP2D6 IC50 (half-maximal inhibitory concentration) [8]: Inactive
- CYP3A4 IC50 (half-maximal inhibitory concentration) [9]: Inactive
- CYP2C19 IC50 (half-maximal inhibitory concentration) [2]: Inactive
- CYP1A2 Efficacy (in parenthesis) [3]: 0.09 ± 0.01 (-45 ± 9) %

Structure (SMILES): COc1cc(C(C)=O)ccc1OCCCN1CCC(c2noc3cc(F)ccc23)CC1 [Iloperidone]
- IC50 [1]: 22.9 ± 14.1 µM
- IC50 [4]: 10.1 ± 2.8 µM

Structure (SMILES): c1ccc2c(c1)-c1ccc3ccc4cccc5cc-2c1c3c45 [Indeno(1,2,3-cd)pyrene]
- IC50 [5]: 12.9 µM
- IC50 [7, 12]: 0.18 µM
- CYP2D6 IC50 (half-maximal inhibitory concentration) [8]: Inactive
- IC50 [1, 13]: 5.5 µM
- IC50 [10]: 15.5 µM
- CYP3A4 IC50 (half-maximal inhibitory concentration) [9]: Inactive

Structure (SMILES): O=C(O)c1nn(Cc2ccc(Cl)cc2Cl)c2ccccc12 [Lonidamine]
- AC50 [1]: 68 µM
- AC50 [4, 11]: 66 µM

Structure (SMILES): Cc1nc(N)nc(N)c1-c1ccc(Cl)c(Cl)c1 [Methodichlorophen]
- AC50 [4]: 2.3 ± 0.41 µM

Structure (SMILES): CC[N+](C)(CC)CCOC(=O)C(O)(c1ccccc1)C1CCCCC1 (centres unmarked) [Oxyphenonium bromide]
- IC50 [4, 14]: 0.87 µM

Structure (SMILES): CC1CCCC(C)N1CCCC(O)(c1ccccc1)c1ccccn1 (centres unmarked) [Pirmenol]
- IC50 [4, 14]: 0.92 µM

Structure (SMILES): CC[C@@H]([C@H](C)O)n1ncn(-c2ccc(N3CCN(c4ccc(OC[C@@H]5CO[C@@](Cn6cncn6)(c6ccc(F)cc6F)C5)cc4)CC3)cc2)c1=O [Posaconazole]
- IC50 [4]: 11.3 ± 3.6 µM

Structure (SMILES): CC(C)[N+](C)(CCOC(=O)C1c2ccccc2Oc2ccccc21)C(C)C [Propantheline bromide]
- AC50 [4, 11]: 0.19 µM
- IC50 [4, 14]: 0.09 µM

Structure (SMILES): c1ccc2nc(N3CCNCC3)ccc2c1 [Quipazine maleate]
- Luciferase IC50 [5]: Inactive
- CYP2C9 IC50 [6]: Inactive
- IC50 ([7]; CYP1A2 IC50): 0.96 µM
- CYP2D6 IC50 [8]: Inactive
- CYP3A4 IC50 [9]: Inactive
- CYP2C19 IC50 [2]: Inactive

Structure (SMILES): CC[N+](CC)(CC)CCOc1ccc(/C=C/c2ccccc2)cc1 [Stilonium iodide]
- AC50 [4, 11]: 15.5 µM

Structure (SMILES): CCOc1ccccc1OCCN[C@H](C)Cc1ccc(OC)c(S(N)(=O)=O)c1 [Tamsulosin hydrochloride]
- IC50 [4, 14]: 12.8 µM

Structure (SMILES): CCN(CC)C(=O)SCc1ccc(Cl)cc1 [Thiobencarb]
- IC50 [5]: 38.5 µM
- CYP2C9 Efficacy (in parenthesis) [6]: 25.18 ± 0 (-91 ± 2) %
- IC50 [7, 12]: 15.9 µM
- CYP2D6 IC50 (half-maximal inhibitory concentration) [8]: Inactive
- IC50 [1, 13]: 25.2 µM
- IC50 [10]: 0.66 µM
- CYP3A4 IC50 (half-maximal inhibitory concentration) [9]: Inactive
- CYP2C19 Efficacy (in parenthesis) [2]: 0.66 ± 0.12 (-124 ± 7) %
- CYP1A2 Efficacy (in parenthesis) [3]: 15.89 ± 0 (-91 ± 6) %

Structure (SMILES): COc1ccccc1N1CCN(CCCNc2cc(=O)n(C)c(=O)n2C)CC1 [Urapidil hydrochloride]
- AC50 [4, 11]: 14 µM

Structure (SMILES): CC(CCc1ccccc1)NCC(O)c1ccc(O)c(C(N)=O)c1 (centres unmarked) [labetalol, reference compound]
- IC50 [4]: 0.6 µM

Structure (SMILES): ClC(Cl)=C(c1ccc(Cl)cc1)c1ccc(Cl)cc1 [p,p'-DDE]
- Luciferase IC50 (half-maximal inhibitory concentration) [5]: Inactive
- CYP2C9 Efficacy (in parenthesis) [6]: 12.86 ± 6.41 (-84 ± 11) %
- IC50 [7, 12]: 3.65 µM
- CYP2D6 IC50 (half-maximal inhibitory concentration) [8]: Inactive
- IC50 [1, 13]: 12.9 µM
- IC50 [10]: 0.57 µM
- CYP3A4 IC50 (half-maximal inhibitory concentration) [9]: Inactive
- CYP2C19 Efficacy (in parenthesis) [2]: 0.57 ± 0.14 (-135 ± 7) %
- CYP1A2 Efficacy (in parenthesis) [3]: 3.65 ± 1.85 (-100 ± 2) %

Structure (SMILES): CC(CN(C)C)CN1c2ccccc2CCc2ccccc21 (centres unmarked) [trimipramine, reference compound]
- IC50 ([4]; IC50 CYP2D6 assay): 3.1 µM
